From the METLIN SMRT retention time set (Domingo-Almenara et al. 2019) come the findings set out here.

The data set in a line: gradient 5% acetonitrile 3 min, to 50% in 2 min, to 85% in 15 min, held 3 min, 100 µL/min. Particulars: column: Zorbax Extend-C18 2.1 x 50 mm; eluents: water / acetonitrile, 0.1% formic acid. The procedure, abridged: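 Mixtures of ~100 pure standards were chromatographed on a Zorbax Extend-C18 column (2.1 × 50 mm, 1.8 μm) at 100 μL/min using water and acetonitrile, each with 0.1% formic acid. Detection used a quadrupole time-of-flight mass spectrometer in positive and negative ionization mode, and data collection spanned 3 months. Retention time was obtained from adduct peaks picked computationally and each checked manually.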
Take `CC1CCN(c2cc3c(cc2NC(=O)C(C)(C)C)n(C)c(=O)c(=O)n3C)CC1`: the RP-LC retention time is 1010 s. To `COC(=O)c1ncn2c1C(=O)N(c1ccccc1C)C(C)(C(=O)NCc1ccccc1)C2` (stereo not given) belongs 715 s; to `O=c1c2cc3c(cc2nc(SCc2nc(-c4cccc(F)c4)no2)n1Cc1ccccc1)OCO3`, 1250 s; to `O=C(NCC1(O)CCCC1)C1CC(=O)N(c2ccccc2)C1` (stereo not given), 624 s.

Compound `Cn1nc(-c2nc(Cc3ccccc3)no2)c2c1CCN(C(=O)NC1CCCCC1)C2` came in with an RP-LC retention time of 933 s. Turning to `CCOC(=O)Nc1nc2c(s1)CN(S(=O)(=O)N(C)C)CC2`, the RP-LC retention time is 670 s.

As for `O=C(c1ccc(Cl)s1)N1CCN(CC(O)c2cccs2)CC1` (stereo not given), the RP-LC retention time was found to be 572 s. Consider `Cc1ccc(C(=O)Nc2ccc3ncnc(N4CCCCC4)c3c2)s1`, for which the RP-LC retention time was found to be 701 s. To `COc1ccccc1NC(=O)N1CCN(Cc2nc3cccnc3n2-c2ccccc2)CC1` belongs 661 s; to `CNC(=O)C1CCCN(c2nc3ncn(CC(=O)NCc4ccc(OC)cc4)c(=O)c3s2)C1` (stereo not given), 632 s.

`CNC(=O)c1cc(C(C)(C)C)[nH]n1` showed an RP-LC retention time of 618 s.

Turning to `Cc1ccc(-c2nc(Cn3c(C)nc4onc(C)c4c3=O)c(C)o2)cc1`, the RP-LC retention time worked out at 1170 s. To `COc1ccc(Cl)cc1S(=O)(=O)NC1CCCN(c2ccc(=O)[nH]n2)C1` (stereo not given) belongs 698 s; to `Cc1noc(C)c1CN1CCN(C(=O)NCc2ccc(F)cc2)CC1`, 598 s. In the case of `CCCCn1cnc2c(nnn2C)c1=O` it was 621 s; in that of `CC1(C)CC(=O)c2cn(-c3ccc(Cl)cc3)c(=O)c(C(=O)NCCN3CCOCC3)c2C1`, 592 s. Turning to `Cc1ccc(S(=O)(=O)Nc2ccc(Cn3cncn3)cc2)cc1F`, the RP-LC retention time was determined as 732 s. In the case of `CCCN1C(=O)COc2cc(-c3noc(C(=O)N4CCCC4)n3)ccc21` it was 885 s; in that of `COCCNC(=O)CC1CCN(C(=O)c2cc3cc(Cl)ccc3[nH]2)CC1`, 701 s; in that of `CC(C)CC(=O)Nc1ccc2nc(N3CCN(c4ccc(Cl)cc4)CC3)cc(C(=O)O)c2c1`, 746 s. Regarding `CCCn1cc(CCNC(=O)Nc2c(C)cccc2C)c2cccnc21`, the RP-LC retention time came to 736 s.

`CNC(=O)c1ccc(-c2nc3cc(NS(=O)(=O)c4ccc(Br)cc4)ccc3n2C)cc1`: the RP-LC retention time was determined as 673 s. In the case of `Cc1ccc(NC(=O)C2CCN(S(=O)(=O)c3ccc4c(c3)NC(=O)C(C)O4)CC2)cc1Cl` (stereo not given) it was 948 s; in that of `O=C(CC1CCCCC1)NC1CCN(c2cc(-c3cccnc3)[nH]n2)CC1`, 633 s; in that of `Cc1cc(C)cc(C(=O)N2CCCC(C(=O)Nc3c(C)cc(C)cc3C)C2)c1` (stereo not given), 983 s. In the case of `COC(=O)c1cc(OCC(=O)Nc2ccccc2)c2cc(OC)c(OC)cc2n1` it was 711 s; in that of `CCOC(=O)c1csc(NC(=O)c2csc3nc(-c4ccc(F)cc4)cn23)n1`, 913 s. To `COc1ccccc1CCC(=O)NCc1ccc2c(c1)ncn2C` belongs 595 s; to `Cc1nn(C(C)C(=O)NCc2ccco2)c(=O)c2nn(-c3ccccc3)c(C)c12` (stereo not given), 761 s. In the case of `O=C(C1CCC1)N1CCc2sc(S(=O)(=O)NCc3ccc4c(c3)OCO4)cc2C1`, the RP-LC retention time came out at 836 s. In the case of `COC(=O)C1=C(CN2CCOCC2)NC(=O)NC1c1ccc(C)cc1C` (stereo not given) it was 609 s. In the case of `CC(C)CNC(=O)N1CCC(CCOc2cccnc2)CC1` it was 605 s; in that of `CN1C(=O)c2cccnc2Sc2cc(NC(=O)c3ccc(F)cc3Cl)ccc21`, 796 s; in that of `COc1ccccc1N1CCN(c2ncc(C(F)(F)F)cc2Cl)CC1`, 1210 s. In turn, `CCn1nccc1C(=O)N1CC(Oc2cccc(-c3nc(C)no3)c2)C1` had an RP-LC retention time of 811 s. To `CSc1ccc(-c2nc3nc(C)cc(C)n3c2Nc2ccccc2C)cc1` belongs 785 s; to `O=C(Cc1csc(NC(=O)c2ccsc2)n1)Nc1nc2c(s1)CCCC2`, 874 s.

`CC(C)Oc1cc2oc(=O)cc(-c3ccccc3)c2cc1CCC(=O)N1CCN(c2ccccn2)CC1` showed an RP-LC retention time of 647 s.

For the compound `Cc1ccc(Nc2c(-c3ccc(C)cc3)nc3ccc(Cl)cn23)cc1`, the RP-LC retention time was 890 s. To `O=C(NCC(=O)N1CCCc2ccccc21)c1cccs1` belongs 761 s; to `CSc1nc(C)c(Br)c(N2CC2)n1`, 596 s. To `COc1ccc(NC(=O)c2cn3c(n2)CSCC3)cc1Cl` belongs 737 s; to `COC(=O)c1ccc(OC)c(Cn2cnc3c(-c4cccc(F)c4)csc3c2=O)c1`, 1080 s.

In the case of `Cc1[nH]ncc1CNC(=O)C1CCN(C(=O)c2ncn3c2COC(c2ccc(F)cc2)C3)CC1` (stereo not given), the RP-LC retention time is 626 s. To `Cc1ccc(-c2nc3cnccn3c2Nc2cccc(C)c2C)cc1` belongs 1040 s; to `COc1ccc(OCc2nc(-c3cccc(-c4ccnn4C)c3)no2)cc1`, 1010 s.

`Cc1ccsc1CN1CCCC1c1nnc2n1CCN(C(=O)C(C)C)CC2` (stereo not given) gave an RP-LC retention time of 585 s.

On to `CCc1noc(NC(C)=O)c1-c1ccc(C)c(S(=O)(=O)N2CCN(c3ccccc3F)CC2)c1`, for which the RP-LC retention time is 723 s. To `Cc1ccc(CNC(=O)Cn2ncc3c(c2=O)N(CC2CC2)C(=O)CS3)cc1` belongs 784 s; to `C=CCn1c(SCCC(=O)O)nnc1-c1cccs1`, 616 s; to `COc1ccc(NC(=O)N(C)CCc2noc(-c3ccc(Cl)cc3)n2)c(OC)c1`, 959 s. Compound `O=C(CN1C(=O)COc2ccc(C(=O)N3CCCC3)cc21)NCc1ccc(Cl)cc1` displayed an RP-LC retention time of 745 s. To `CCn1nccc1C(=O)N1CC(Oc2ccc(-c3nc(-c4ccccc4)no3)cc2)C1` belongs 1120 s; to `O=C(Cn1nc2n(c1=O)CCCC2)Nc1ccc(C(F)(F)F)cc1`, 716 s. To `CCC(C)(C)c1ccc(Oc2cccc(C(=O)O)c2)cc1` belongs 1260 s; to `Cc1oc2c(c1C(=O)Nc1cccc(Br)c1)C1=NCCN1C=N2`, 643 s; to `Cc1nnc(-c2ccc3ccn(CC(=O)NCc4ccc5c(c4)OCO5)c3c2)o1`, 756 s. To `Cc1noc(C)c1Cc1ccc(C(=O)N2CCCC2c2nc(CCOCC3CC3)no2)o1` (stereo not given) belongs 825 s; to `Clc1ccccc1-c1nc(-c2cccc(-c3ccn[nH]3)c2)no1`, 1040 s; to `CCS(=O)(=O)N1CC(=O)N(c2ccc(Cl)cc2C)C(C)(C(=O)NCc2ccccc2)C1` (stereo not given), 906 s.

`O=C(CCc1nc2ccccc2[nH]1)N1CCC(c2noc(-c3ccccn3)n2)C1` (stereo not given): the RP-LC retention time amounted to 581 s. To `O=C(Cc1ccc(Cl)cc1)NC1CCN(c2nnc3ccc(C(F)(F)F)cn23)CC1` belongs 799 s; to `O=C(O)c1cccc(Nc2c(-c3cccc(Br)c3)nc3cnccn23)c1`, 748 s; to `Cc1ccc(C(=O)N2CCC(n3c(C)cnc3C)C2)s1` (stereo not given), 585 s. In turn, `COc1ccc(-c2noc(C3(NC(=O)c4ccc(F)cc4)CCCCC3)n2)cc1` showed an RP-LC retention time of 1150 s. The compound `COc1ccc(N2C(=O)CCS2(=O)=O)cc1S(=O)(=O)NCCc1c[nH]c2ccccc12` had an RP-LC retention time of 792 s. As to `CN1C(=O)c2cc(C(=O)NCCN3CCCCCC3)nn2CC1(C)C(=O)NCc1ccccc1` (stereo not given), the RP-LC retention time amounted to 608 s.

In turn, `CCn1cc(C(=O)Nc2ccc(C)c(C)c2)c2cccnc21` yielded an RP-LC retention time of 937 s. Compound `CCOC(=O)C1=C(C)NC2=C(C(=O)C(C(=O)OC)C(C)C2)C1c1ccccc1OC` (stereo not given) yielded an RP-LC retention time of 849 s. As to `CC1CCN(C(=O)C2=NN(Cc3ccccc3F)c3ccccc3S2(=O)=O)CC1`, the RP-LC retention time was 1030 s. To `CCOC(=O)C(=O)Nc1ccc(-c2nc(-c3cc(C)ccc3C)co2)cc1` belongs 1180 s; to `O=c1cccnn1CCNS(=O)(=O)c1ccc(F)c(Cl)c1`, 665 s.

The compound `COc1ccc(NC(=O)C2(C)Oc3cccnc3N(C)C2=O)cc1Cl` (stereo not given) registered an RP-LC retention time of 842 s. `O=C1COc2ccc(-c3csc(NC(=O)c4ccc(F)cc4)n3)cc2N1`: the RP-LC retention time was 838 s. To `CN1C(=O)[C@H]2CN(Cc3cc(F)ccc3F)C[C@H]2C1=O` belongs 602 s; to `CSc1cccc(NC(=O)NCCNc2nc(C)cc(N(C)C)n2)c1`, 583 s.

`COc1ccc(NC(=O)Cn2nc3n(c2=O)CCCCC3)cc1` came in with an RP-LC retention time of 709 s. For the compound `CC(C)c1ccc(-c2noc(N3CCC(C(=O)N4CCN(C5CCCCC5)CC4)CC3)n2)cc1`, the RP-LC retention time turned out to be 814 s. In turn, `COc1cc(OC)c(NC(=O)C2CC(=O)N(c3cccc(NC(C)=O)c3)C2)cc1Cl` (stereo not given) registered an RP-LC retention time of 712 s. With `CN(CCNC(=O)c1sc2ncccc2c1-n1cccc1)Cc1ccccc1`, the RP-LC retention time came out at 666 s.
